Measurements as given in BindingDB's records for doi:10.1016/j.bmc.2017.12.033 (University of Messina, 2018).

Columns and labels:
[1] = Inhibition of reverse transcriptase L100I mutant in HIV1 infected in human MT4 cells assessed as protection against virus induced cytotoxicity after 5 days by MTT assay
[2] = Inhibition of reverse transcriptase Y181C mutant in HIV1 infected in human MT4 cells assessed as protection against virus induced cytotoxicity after 5 days by MTT assay
[3] = Inhibition of reverse transcriptase E138K mutant in HIV1 infected in human MT4 cells assessed as protection against virus induced cytotoxicity after 5 days by MTT assay
[4] = Inhibition of reverse transcriptase K103N mutant in HIV1 infected in human MT4 cells assessed as protection against virus induced cytotoxicity after 5 days by MTT assay
[5] = Inhibition of reverse transcriptase Y188L mutant in HIV1 infected in human MT4 cells assessed as protection against virus induced cytotoxicity after 5 days by MTT assay
[6] = Inhibition of reverse transcriptase F227L/V106A double mutant in HIV1 infected in human MT4 cells assessed as protection against virus induced cytotoxicity after 5 days by MTT assay
[7] = Inhibition of reverse transcriptase K103N/Y181C double mutant in HIV1 infected in human MT4 cells assessed as protection against virus induced cytotoxicity after 5 days by MTT assay

SMILES	EC50 [1] [nM]	EC50 [2] [nM]	EC50 [3] [nM]	EC50 [4] [nM]	EC50 [5] [nM]	EC50 [6] [nM]	EC50 [7] [nM]
Cc1cc(C)cc(S(=O)(=O)n2c(SCC(=O)Nc3ccc(C(=O)O)cc3)nc3ccccc32)c1	1820	23600	1350	11800	> 124000	> 124000	> 124000
Cc1cc(C)cc(S(=O)(=O)n2c(SCC(=O)Nc3ccc(S(C)(=O)=O)cc3)nc3ccccc32)c1	88	> 10600	150	1190	> 10600	> 770	> 10600
Cc1cc(C)cc(S(=O)(=O)n2c(OCC(=O)Nc3ccc(S(C)(=O)=O)cc3Cl)nc3ccccc32)c1	290	890	670	> 33900	> 228000	1820	–
Cc1cc(C)cc(S(=O)(=O)n2c(SCC(=O)Nc3ccc(S(N)(=O)=O)cc3)nc3ccccc32)c1	73	> 27200	60	670	1560	1580	> 27200
Cc1ccc(NC(=O)CSc2nc3ccccc3n2S(=O)(=O)c2cc(C)cc(C)c2)cc1	240	> 3130	160	> 3130	> 3130	> 3130	> 3130
COC(=O)c1ccc(NC(=O)CSc2nc3ccccc3n2S(=O)(=O)c2cc(C)cc(C)c2)cc1	170	> 8360	160	960	> 8360	> 8360	> 8360
